The values that follow come from patent US5786386A, “Antibacterial and fungicidal agent” (Takasago International Corporation, priority 1995, dated 1998).

Each structure is given as a SMILES string.

Holding throughout (assay type): in vivo
The test system of data set [1] is Hartley guinea pigs. The data set can be described thus: Test Example 3 (safety test), primary stimulation to the skin. As to conditions: 1 wt % solution in acetone; female guinea pigs. The procedure:
(§1) Test Example 3 (safety test) Method Five (5) or ten (10) Hartley guinea pigs (female, body weight: 350-400 g) are used. A 1 wt % solution of each test compound in acetone was prepared, and the solution was tested with respect to its sensitizing potential, primary stimulation to the skin, and photo-toxicity. As test compounds, three compounds, i.e., compound Nos. 1, 10, and 14 in Table 1, were used.

For data set [2], the system named is Hartley guinea pigs. The data set can be described thus: Test Example 3 (safety test), photo-toxicity. As to conditions: 1 wt % solution in acetone; light source FL-40S.BLB (300-400 nm); female guinea pigs. The procedure:
Test Example 3 (safety test)
Five (5) or ten (10) Hartley guinea pigs (female, body weight: 350-400 g) are used. A 1 wt % solution of each test compound in acetone was prepared, and the solution was tested with respect to its sensitizing potential, primary stimulation to the skin, and photo-toxicity.
As test compounds, three compounds, i.e., compound Nos. 1, 10, and 14 in Table 1, were used.
The positive control compound used for the photo-toxicity was an ethanol solution containing 100 ppm of 8-methoxypsoralen (product of Aldrich). The light source used was FL-40S.BLB (300-400 nm; manufactured by Toshiba).

Data set [3] concerns Hartley guinea pigs. The data set can be described thus: Test Example 3 (safety test), sensitization, maximization method. As to conditions: 1 wt % solution in acetone; induction at 10 wt %; female guinea pigs. The procedure: as §1, with “were used. The sensitization test was performed in accordance with the maximization method proposed by Magnusson [Magnusson, B and Kligman, A.M.,; "The identification of contact allergens by animal assay. The guinea pig maximization test" (J. Inv. Derm., 52, p268-276 (1969))]. The induction of sensitization was performed at a concentration of 10 wt %.” for “were used.”

As to `CCCCCCCCCCCCNCc1ccc2c(c1)OCO2` [Compound No. 1], the Primary stimulation with Hartley guinea pigs [1] was 0/5. In addition, the Photo-toxicity in the data set with Hartley guinea pigs [2] is given as 0/5. In addition, in the data set on Hartley guinea pigs [3], the Sensitization is 0/10.

`CCCCCCCCCCCCNCc1ccc(OC)c(O)c1` [Compound No. 10, N-lauryl-3-hydroxy-4-methoxybenzylamine]: the Primary stimulation in the data set on Hartley guinea pigs [1] is 0/5. Besides, in the data set with Hartley guinea pigs [2], the Photo-toxicity is given as 0/5. Also, in the data set with Hartley guinea pigs [3], the Sensitization is on record as 0/10.

`CCCCCCCCCCCCN(C)Cc1cc(OC)c(OC)cc1OC` [Compound No. 14]: in the data set with Hartley guinea pigs [1], the Primary stimulation is on record as 0/5. For the same compound, the Photo-toxicity with Hartley guinea pigs [2] is 0/5. Moreover, in the data set on Hartley guinea pigs [3], the Sensitization is recorded as 0/10.
